We go through one compound from patent US20060183794A1, “Drug composition containing nf-kb inhibitor” (priority 2002, published 2006).

In one assay the test system is K562. The assay is described as follows: Hoechst staining apoptosis assay, control cell line K562. As to conditions: 10 μg/ml, 72 hours. The assay is classed as cell-based. The procedure: (§1) DHM2EQ was added to the ATL cell lines (MT-1 and TL-Om1) and a control cell line (K562) at a final concentration of 10 μg/ml, followed by incubation for 72 hours. Subsequently, apoptosis was examined by observing nuclear […] or fragmentation on Hoechst staining with a fluorescence microscope. Cells to which the solvent DMSO had been added in equal volume were also examined in the same manner.

Assay [1] has as its system ATL cell lines (MT-1 and TL-Om1). Description: Hoechst staining apoptosis assay, ATL cell lines. The assay is classed as cell-based, human. As to conditions: 10 μg/ml, 72 hours. On the procedure:
as §1

In assay [2] the test system is human pancreatic cancer cell line PK-2. Description: Human pancreatic cancer PK-2 subcutaneous tumor in SCID mice. The assay is classed as in vivo. As to conditions: PK-2 s.c., 12 mg/kg i.p. On the procedure:
The in vivo suppressive effect of DHMEQ on proliferation of tumor cells in human pancreatic cancer. The human pancreatic cancer cell line PK-2 (2×10^6 cells) was inoculated subcutaneously in the right back of SCID mice (n=7) and then 12 mg/kg DHMEQ was injected intraperitoneally (i.p.) at a dose of 200 μl every other day for five days. Subsequently, the major axis and minor axis of the tumors were measured every seven days. The tumor volume was calculated as follows: (major axis)×(minor axis)^2×0.5.

Assay [3] concerns the target T1, NF-κB (Homo sapiens, UniProt P19838+Q04206). Description: Gel shift assay of NF-κB activation by antitumor agents in KMH2 cells. It counts as cell-based. More on the design: endogenous in cells; host or cells: HL cell lines KMH2, L428, L540, HDLM2 (A30: KMH2 treated with antitumor agents). The note with it: camptothecin or daunomycin with concurrent DHMEQ. Background: In EMSA bound probe runs differently from free probe, usually more slowly.
Target sequence in this assay (P19838 1-433 limits assumed): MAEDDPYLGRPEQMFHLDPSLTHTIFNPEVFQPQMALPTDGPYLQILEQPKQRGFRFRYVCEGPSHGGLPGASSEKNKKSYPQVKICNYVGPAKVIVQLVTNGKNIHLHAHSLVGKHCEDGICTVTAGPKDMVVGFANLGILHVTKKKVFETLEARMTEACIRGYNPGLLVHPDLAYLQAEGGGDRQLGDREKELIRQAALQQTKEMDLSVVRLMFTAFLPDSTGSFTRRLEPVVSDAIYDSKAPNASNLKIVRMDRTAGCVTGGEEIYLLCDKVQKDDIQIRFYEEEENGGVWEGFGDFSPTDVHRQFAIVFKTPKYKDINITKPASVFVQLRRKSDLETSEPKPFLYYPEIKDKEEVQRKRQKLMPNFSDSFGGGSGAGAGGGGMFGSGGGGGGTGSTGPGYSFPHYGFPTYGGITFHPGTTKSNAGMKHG
Target sequence in this assay (Q04206 whole entry): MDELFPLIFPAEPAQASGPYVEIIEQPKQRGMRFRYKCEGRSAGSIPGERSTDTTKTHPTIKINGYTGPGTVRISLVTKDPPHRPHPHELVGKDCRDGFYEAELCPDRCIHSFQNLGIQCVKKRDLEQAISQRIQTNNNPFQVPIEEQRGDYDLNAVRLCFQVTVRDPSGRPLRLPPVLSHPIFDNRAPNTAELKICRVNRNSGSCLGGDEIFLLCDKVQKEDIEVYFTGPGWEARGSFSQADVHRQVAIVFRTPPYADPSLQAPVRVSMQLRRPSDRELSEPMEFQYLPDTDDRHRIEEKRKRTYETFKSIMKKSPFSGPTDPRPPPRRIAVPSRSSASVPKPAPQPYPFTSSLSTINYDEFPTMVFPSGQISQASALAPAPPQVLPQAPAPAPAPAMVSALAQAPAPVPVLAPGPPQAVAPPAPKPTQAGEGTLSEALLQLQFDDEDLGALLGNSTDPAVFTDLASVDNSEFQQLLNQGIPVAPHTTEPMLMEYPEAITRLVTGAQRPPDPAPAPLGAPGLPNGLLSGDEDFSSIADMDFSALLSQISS

Assay [4] concerns the target T1, NF-κB. Description: Gel shift assay of constitutive NF-κB activation in multiple myeloma cell lines. Also on record: endogenous in cells; host or cells: MM cell lines KMM1, RPMI8226, U266. The assay is classed as cell-based. On the procedure:
The ATL cell lines (MT-1 and TL-Om1) and the control cell lines (K562 and Jurkat+TNF), 2×10^6 cells each, were treated with 10 μg/ml DHM2EQ for 12 hours, and nuclear extract was prepared from each cell line. Likewise, nuclear extract was prepared also from the cell lines not treated with DHM2EQ. MT-1 and TL-Om1 are the cell lines transformed with HTLV-1; NF-κB is activated in these cell lines. K562 (myelocytic leukemia cell line) is a cell line in which constitutive NF-κB is not confirmed (a negative control), and Jurkat+TNF is a […] consensus oligomers (Promega) were end-labeled with [γ-^32P]-ATP and polynucleotide kinase (PNK) to prepare ^32P-labeled NF-κB probes.
The equivalent of 2 μg of nuclear extract protein was mixed with NF-κB probes (the equivalent of 10,000 cpm) in a volume of 20 μl and reacted at room temperature for 30 min. The solution after the reaction was subjected to 7.5% polyacrylamide gel electrophoresis. The gel was then dried and exposed to an X-ray film.
The MM cell lines, KMM1, RPMI8226, and U266 (2×10^6 cells each) were treated with 10 μg/ml of DHMEQ for 12 hours, and nuclear extract was prepared from each cell line. The gel shift assay was performed in the same method as in Example 4 and the inhibitory effect of DHMEQ on NF-κB was examined. […] The TNF-treated Jurkat (Jurkat+TNF) was used as the positive control.
Next, the MM cell lines, KMM1, RPMI8226, and U266 were treated with 10 μg/ml DHMEQ for 12 hours, and nuclear extract was prepared from each cell line. The gel shift assay was performed in the same method as in Example 4 (1) and the time-course inhibitory effect on NF-κB was examined.
Target sequence in this assay (Q04206 whole entry): as above
Target sequence in this assay (P19838 1-433 limits assumed): as the sequence (P19838 1-433 limits assumed) above

A further assay has as its target T2, p65 subunit of NF-κB (Homo sapiens, UniProt Q04206).
T2 construct: endogenous in cells; host or cells: ATL cell lines MT-1 and TL-Om1
The assay is described as follows: Confocal microscopy of p65 distribution in ATL cell lines. It counts as cell-based. As to conditions: MT-1 and TL-Om1; 10 μg/ml DHM2EQ, 24 hours. The procedure: It is thought that DHM2EQ inhibits nuclear translocation of the p65 subunit of NF-κB. The ATL cell lines (MT-1 and TL-Om1) were treated with 10 μg/ml DHM2EQ for 24 hours and distribution of p65 was examined with a confocal microscope, using fluorescence-labeled anti-p65 antibody. The cell lines not treated with DHM2EQ were also examined in the same manner. In the figure, “−” and “+” indicate the results of DHM2EQ untreatment and DHM2EQ treatment, respectively.

Assay [5] has as its system K562 (myelocytic leukemia cell line). The assay is described as follows: MTT assay, proliferation of control cell line K562. The assay is classed as cell-based. On the procedure:
Cells from the ATL cell lines (MT-1 and TL-Om1) and a control cell line (K562) were plated in 96-well plates at 1×10^5 cells/well and DHM2EQ was added at the desired final concentrations (2, 5, and 10 μg/ml). Cells to which the solvent DMSO had been added in equal volume (0 μg/ml) were used as […] incubation for 72 hours, cell viability was judged by the MTT assay. Relative MTT values were obtained as the ratio of the MMT values of DHM2EQ-treated cells to those of DHM2EQ-untreated cells, i.e., (MTT values of DHM2EQ-treated cells/MTT values of DHM2EQ-untreated cells)×100(%).
DHM2EQ was added to the ATL cell lines (MT-1 and TL-Om1) and a control cell line (K562) at a final concentration of 10 μg/ml and the cells were incubated for 12, 24, 48, and 72 hours. The proliferation-inhibitory effect was examined by the MTT assay. Cells to which the solvent DMSO had been added in equal volume were used as controls. Relative MTT values were obtained in the same manner as the aforementioned (1).
Time-course analysis and concentration dependence analysis of the inhibitory effect of DHM2EQ on proliferation of Hodgkin's lymphoma cells were performed in the same manner as in Example 2. As Hodgkin's lymphoma cells, the Hodgkin's lymphoma cell lines KMH-2 and L-540 were used.
In general terms: Formazan colour is commonly taken as a measure of viable cells.

T2 sequence (Q04206 whole entry): as the sequence (Q04206 whole entry) above

For the compound `O=C(NC1=CC(=O)C2OC2C1O)c1ccccc1O` (stereo not shown) [DHMEQ, 5,6-epoxy-4-hydroxy-3-salicyloylamino-2-cyclohexenone], the “apoptosis (Hoechst staining)” value with K562 was “apoptosis was not observed”. The “apoptosis (nuclear fragmentation, Hoechst staining)” value in assay [1] is “apoptosis was induced”. The “proliferation of tumor cells (tumor volume)” value in assay [2] is “significantly suppresses”. The “NF-κB induction by antitumor agent” value on NF-κB [3] was “strongly suppressed”. Moreover, the “signals by NF-κB (gel shift)” value on NF-κB [4] (KMM1, RPMI8226, U266, 10 μg/ml DHMEQ, 12 hours) was “lost”. At NF-κB [4] (MM cell lines, 10 μg/ml), the “persistence of inhibition of NF-κB activation” value was “sustained even after a lapse of 16 hours”. At NF-κB [4] (MM cell lines, 10 μg/ml, 1 hour after treatment), the “activation of NF-κB, time course (gel shift)” value is listed as “almost inhibited”. Besides, the “nuclear translocation of p65” value at p65 subunit of NF-κB is listed as “inhibited”. Besides, the “cell proliferation, time course (MTT)” value in assay [5] (10 μg/ml, 12, 24, 48, 72 hours, listed as DHM2EQ) is “hardly inhibited even after time had elapsed”. Besides, the “cell proliferation, concentration dependence (MTT)” value in assay [5] (2, 5, 10 μg/ml, 72 hours) is recorded as “hardly inhibited”.
